Assay results: ChEMBL document CHEMBL2202987, “Structure based medicinal chemistry approach to develop 4-methyl-7-deazaadenine carbocyclic nucleosides as anti-HCV agent” (Bioorg Med Chem Lett, 2012)

Assays:
[1] = Cytotoxicity against human HuH7 cells by tetrazolium dye method; type: cell-based, Huh-7
Hepatitis C virus = assay: Antiviral activity against HCV infected in HuH7 cells after 3 days by luciferase reporter gene assay; type: functional, organism-based, Hepacivirus hominis; details: Huh-7, 72 h

| Structure (SMILES) | EC50 (Hepatitis C virus) | CC50 [1] |
| --- | --- | --- |
| Cc1ncnc2c1c(I)cn2[C@@H]1C=C(CO)[C@@H](O)[C@H]1O | 46.2 µM | > 100 µM |
| Cc1ncnc2c1c(F)cn2[C@@H]1C=C(CO)[C@@H](O)[C@H]1O | > 100 µM | > 100 µM |
| C#Cc1cn([C@@H]2C=C(CO)[C@@H](O)[C@H]2O)c2ncnc(C)c12 | 67.7 µM | > 100 µM |
| Cc1ncnc2c1c(Cl)cn2[C@@H]1C=C(CO)[C@@H](O)[C@H]1O | 41.7 µM | > 100 µM |
| Cc1ncnc2c1ccn2[C@@H]1C=C(CO)[C@@H](O)[C@H]1O | > 100 µM | > 100 µM |

The next compounds have a lower EC50 (Hepatitis C virus) than those just listed; values first:

| EC50 (Hepatitis C virus) | Structure (SMILES) | CC50 [1] |
| --- | --- | --- |
| 0.17 µM | CCCCn1c(=O)c2cc(OC)ccc2c2cc(C(O)(C(F)(F)F)C(F)(F)F)c(OC)cc21 | > 10 µM |
| 28 µM | C=Cc1cn([C@@H]2C=C(CO)[C@@H](O)[C@H]2O)c2ncnc(C)c12 | 52.8 µM |
| 37.3 µM | Cc1ncnc2c1c(Br)cn2[C@@H]1C=C(CO)[C@@H](O)[C@H]1O | > 100 µM |
